Measured values published in paper PMC2858699, “Proteolysis of Human Thrombin Generates Novel Host Defense Peptides” (PLoS Pathogens, 2010).
In brackets after ≈: the same amount, converted by molar mass. Where a SMILES comes first, the peptide text is derived from it.

Legend:
[1] = tested on: S. aureus Clinical isolate 1090; format: cell-based
Protocol: (§1) MIC assay was carried out by a microtiter broth dilution method as previously described in the NCSLA guidelines. Hemolysis, MTT, and LDH assays were performed as previously described (See Text S1).
(§2) MIC assay was carried out by a microtiter broth dilution method as previously described in the NCSLA guidelines (Wiegand, I., Hilpert, K. & Hancock, R.E. Agar and broth dilution methods to determine the minimal inhibitory concentration (MIC) of antimicrobial substances. Nat Protoc 3, 163-175 (2008)). In brief, fresh overnight colonies were suspended to a turbidity of 0.5 units and further diluted in Mueller-Hinton broth (Becton Dickinson). […] Ten µl of each concentration was added to each corresponding well of a 96-well microtiter plate (polypropylene, Costar Corp.) and 90 µl of bacteria (1x10^5) in MH medium added. The plate was incubated at 37 °C for 16-18 h. MIC was taken as the lowest concentration where no visual growth of bacteria was detected.
(§3) Table S2. […] The analysis was performed as described in Wiegand et al. and according to NCSLA guidelines. Additional clinical isolates were obtained from the Department of Bacteriology, Lund University Hospital. P. aeruginosa, E. coli and E. faecalis isolates were initially derived from patients with chronic ulcers, S. aureus from patients with atopic dermatitis. The S. pyogenes strain AP1 was from the WHO Collaborating Center for References and Research on Streptococci (Prague, Czech Republic).

[2] = tested on: S. aureus Clinical isolate 14312; format: cell-based
Protocol: as §1, §2, §3

S. aureus ATCC 29213 = format: cell-based
Protocol: as §1, §2, §3

[3] = tested on: S. aureus Clinical isolate 16065; format: cell-based
Protocol: as §1, §2, §3

E. coli ATCC 25922 [4] = format: cell-based
Protocol: as §1, §2, §3

[5] = tested on: P. aeruginosa Clinical isolate 18488; format: cell-based
Protocol: as §1, §2, §3

[6] = tested on: E. coli Clinical isolate 49.1; format: cell-based
Protocol: as §1, §2, §3

[7] = tested on: P. aeruginosa Clinical isolate 23.1; format: cell-based
Protocol: as §1, §2, §3

P. aeruginosa ATCC 27853 = format: cell-based
Protocol: as §1, §2, §3

[8] = tested on: S. aureus Clinical isolate 18319; format: cell-based
Protocol: as §1, §2, §3

[9] = tested on: E. coli Clinical isolate 37.4; format: cell-based
Protocol: as §1, §2, §3

[10] = tested on: S. aureus Clinical isolate 13430; format: cell-based
Protocol: as §1, §2, §3

[11] = tested on: S. aureus Clinical isolate 1088; format: cell-based
Protocol: as §1, §2, §3

[12] = tested on: P. aeruginosa Clinical isolate 27.1; format: cell-based
Protocol: as §1, §2, §3

[13] = tested on: P. aeruginosa Clinical isolate 13.2; format: cell-based
Protocol: as §1, §2, §3

[14] = tested on: S. aureus Clinical isolate 18800; format: cell-based
Protocol: as §1, §2, §3

[15] = tested on: P. aeruginosa Clinical isolate 15159; format: cell-based
Protocol: as §1, §2, §3

[16] = tested on: P. aeruginosa Clinical isolate 62.1; format: cell-based
Protocol: as §1, §2, §3

[17] = tested on: P. aeruginosa Clinical isolate 51.1; format: cell-based
Protocol: as §1, §2, §3

[18] = tested on: E. faecalis Clinical isolate 2374; format: cell-based
Protocol: as §1, §2, §3

S. pyogenes AP1 = format: cell-based
Protocol: as §1, §2, §3

[19] = tested on: S. aureus Clinical isolate 1086; format: cell-based
Protocol: as §1, §2, §3

[20] = tested on: P. aeruginosa Clinical isolate 10.5; format: cell-based
Protocol: as §1, §2, §3

[21] = tested on: E. coli Clinical isolate 47.1; format: cell-based
Protocol: as §1, §2, §3

S. aureus FDA 486 = format: cell-based
Protocol: as §1, §2, §3

E. coli ATCC 25922 [22] = assay: Viable count assay; format: cell-based; settings: E. coli ATCC 25922 2×10^6 cfu/ml, 50 µl, 10 mM Tris pH 7.4 with 5 mM glucose, 37°C 2 h; 3 and 6 µM
Protocol: 2×10^6 cfu/ml of bacteria were incubated in 50 µl with proteins and peptides at a concentration of 3 and 6 µM, respectively.
E. coli ATCC 25922 bacteria were grown to mid-logarithmic phase in Todd-Hewitt (TH) medium. Bacteria were washed and re-suspended in 10 mM Tris, pH 7.4 containing 5 mM glucose. […] Serial dilutions of the incubation mixtures were plated on TH agar, followed by incubation at 37°C overnight and cfu determination.

[23] = Liposome leakage assay (carboxyfluorescein release)
Protocol: (E) Effects of the indicated peptides on liposome leakage. The membrane permeabilizing effect was recorded by measuring fluorescence release of carboxyfluorescein from PA (negatively charged) liposomes. The experiments were performed in 10 mM Tris-buffer, in absence and presence of 0.15 M NaCl. Values represents mean of triplicate samples.
Dry lipid films were prepared by dissolving either dioleoylphosphatidylethanolamine (Avanti Polar Lipids, Alabaster, AL) (70 mol%) and dioleoylphosphatidylglycerol (30 mol%) in chloroform, and then removing the solvent by evaporation under vacuum overnight. Subsequently, buffer solution containing 10 mM Tris, pH 7.4, either with or without additional 150 mM NaCl, was added together with 0.1 M carboxyfluorescein (CF) (Sigma). After hydration, the lipid mixture was subjected to eight freeze-thaw cycles consisting of freezing in liquid nitrogen and heating to 60°C. Unilamellar liposomes with a diameter of about 130 nm (as found with cryo-TEM; results not shown) were generated by multiple extrusions through polycarbonate filters (pore size 100 nm) mounted in a LipoFast miniextruder (Avestin). Untrapped carboxyfluorescein was then removed by filtration through two subsequent Sephadex G-50 columns with the relevant Tris buffer as eluent. […] The CF release was monitored by fluorescence at 520 nm from a liposome dispersion (10 mM lipid in 10 mM Tris pH 7.4). […]

E. coli = assay: Radial diffusion assay (RDA), low-salt conditions; format: cell-based; settings: 6 µl per well (3.6 µg protein), not digested with neutrophil elastase
Protocol: Figure 1 Generation of antimicrobial peptides by degradation of prothrombin and thrombin. (A) Degradation of the proteins was performed at 37°C for the indicated time periods. RDA was performed in low-salt conditions using E. coli as test organism. Each 4 mm-diameter well was loaded with 6 µl of the solution (corresponding to 3.6 µg protein). The bar diagrams indicate the diameter of the zones of clearance obtained (in mm). The inset visualizes the results obtained with prothrombin. C, buffer; NE, neutrophil elastase only. LL-37 (100 µM) was included for comparison. (B) Intact prothrombin (PT) and thrombin (T), and cleavage products from the different incubations with neutrophil elastase (NE, indicated above) were analyzed by SDS-PAGE (16.5% Tris-Tricine gel). The gels are overloaded (12 µg) in order to visualize generation of fragments of low molecular masses. Rightmost two lanes show PT and T proteins at 2 µg.
Figure 2 Activities of peptides derived from prothrombin. (A) Sequence of prothrombin and overlapping peptides (indicated by numbers). In addition to the regular overlapping peptides, peptide regions of high net charge, and/or content of predicted helical regions (Agadir; http://www.embl-heidelberg.de/Services/serrano/agadir/agadir-start.html) were selected. […] (B) Overlapping peptides of prothrombin were analyzed for antimicrobial activities against E. coli. […]

Molecule: CC[C@H](C)[C@H](N)C(=O)N[C@@H](CC(C)C)C(=O)N[C@@H](CCCNC(=N)N)C(=O)N[C@@H](Cc1c[nH]c2ccccc12)C(=O)N1CCC[C@H]1C(=O)N[C@@H](Cc1c[nH]c2ccccc12)C(=O)N[C@@H](Cc1c[nH]c2ccccc12)C(=O)N1CCC[C@H]1C(=O)N[C@@H](Cc1c[nH]c2ccccc12)C(=O)N[C@@H](CCCNC(=N)N)C(=O)N[C@@H](CCCNC(=N)N)C(=O)N[C@@H](CCCCN)C(N)=O [Omiganan] (H-ILRWPWWPWRRK-NH2)
- MIC [1]: 80 µM (≈ 142 µg/mL)
- MIC [2]: 20 µM (≈ 35.6 µg/mL)
- MIC (S. aureus ATCC 29213): 10 µM (≈ 17.8 µg/mL)
- MIC [3]: 5 µM (≈ 8.9 µg/mL)
- MIC (E. coli ATCC 25922 [4]): 20 µM (≈ 35.6 µg/mL)
- MIC [5]: 20 µM (≈ 35.6 µg/mL)
- MIC [6]: 10 µM (≈ 17.8 µg/mL)
- MIC [7]: 40 µM (≈ 71.2 µg/mL)
- MIC (P. aeruginosa ATCC 27853): 160 µM (≈ 285 µg/mL)
- MIC [8]: 20 µM (≈ 35.6 µg/mL)
- MIC [9]: 20 µM (≈ 35.6 µg/mL)
- MIC [10]: 10 µM (≈ 17.8 µg/mL)
- MIC [11]: 20 µM (≈ 35.6 µg/mL)
- MIC [12]: >160 µM
- MIC [13]: 40 µM (≈ 71.2 µg/mL)
- MIC [14]: 2.5 µM (≈ 4.45 µg/mL)
- MIC [15]: 20 µM (≈ 35.6 µg/mL)
- MIC [16]: 20 µM (≈ 35.6 µg/mL)
- MIC [17]: 80 µM (≈ 142 µg/mL)
- MIC [18]: 160 µM (≈ 285 µg/mL)
- MIC (S. pyogenes AP1): 5 µM (≈ 8.9 µg/mL)
- MIC [19]: 10 µM (≈ 17.8 µg/mL)
- MIC [20]: 40 µM (≈ 71.2 µg/mL)
- MIC [21]: 20 µM (≈ 35.6 µg/mL)
- MIC (S. aureus FDA 486): 20 µM (≈ 35.6 µg/mL)

Molecule: VFRLKKWIQKVIDQFGE [VFR17]
- antibacterial activity in viable count assay (E. coli ATCC 25922 [22]): significant antibacterial activity
- leakage of liposomes (carboxyfluorescein release) ([23]; negatively charged liposomes, 10 mM Tris pH 7.4, absence and presence of 0.15 M NaCl, triplicate): induced leakage of liposomes
- time to reach ∼80% of the maximum leakage ([23]; peptide at 1 µM, data not shown): ≤ 200 s

Molecule: thrombin
- antimicrobial activity in RDA, intact proteins (E. coli): inactive
